Results on 24 compounds are retold here after ChEMBL document CHEMBL1153626, “Rapid assessment of a novel series of selective CB(2) agonists using parallel synthesis protocols: A Lipophilic Efficiency (LipE) analysis” (Bioorg Med Chem Lett, 2009).

As a reminder, the EC50 is the concentration at which the effect is half-maximal.

Common to all, as to type: functional, cell-based
The target of one assay is Cannabinoid receptor 2 (Homo sapiens, UniProt P34972). In words: Agonist activity at human recombinant CB2 receptor expressed in CHO cells assessed as inhibition forskolin-induced cAMP release.
Sequence of Cannabinoid receptor 2 (P34972 whole entry): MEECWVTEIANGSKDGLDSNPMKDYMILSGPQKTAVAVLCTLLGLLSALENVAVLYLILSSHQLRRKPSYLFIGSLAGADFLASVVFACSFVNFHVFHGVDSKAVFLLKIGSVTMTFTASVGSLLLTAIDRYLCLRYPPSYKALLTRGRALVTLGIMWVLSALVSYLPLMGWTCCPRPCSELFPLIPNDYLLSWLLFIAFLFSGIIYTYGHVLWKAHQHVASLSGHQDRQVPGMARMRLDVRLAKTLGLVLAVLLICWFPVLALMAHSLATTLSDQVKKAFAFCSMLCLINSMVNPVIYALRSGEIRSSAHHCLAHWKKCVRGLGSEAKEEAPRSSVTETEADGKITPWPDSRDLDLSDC
In assay [1] the target is T1, Cannabinoid receptor 1 (Homo sapiens, UniProt P21554). In words: Agonist activity at human recombinant CB1 receptor expressed in CHO cells at 10 uM by FLIPR assay.
T1 sequence (P21554 whole entry): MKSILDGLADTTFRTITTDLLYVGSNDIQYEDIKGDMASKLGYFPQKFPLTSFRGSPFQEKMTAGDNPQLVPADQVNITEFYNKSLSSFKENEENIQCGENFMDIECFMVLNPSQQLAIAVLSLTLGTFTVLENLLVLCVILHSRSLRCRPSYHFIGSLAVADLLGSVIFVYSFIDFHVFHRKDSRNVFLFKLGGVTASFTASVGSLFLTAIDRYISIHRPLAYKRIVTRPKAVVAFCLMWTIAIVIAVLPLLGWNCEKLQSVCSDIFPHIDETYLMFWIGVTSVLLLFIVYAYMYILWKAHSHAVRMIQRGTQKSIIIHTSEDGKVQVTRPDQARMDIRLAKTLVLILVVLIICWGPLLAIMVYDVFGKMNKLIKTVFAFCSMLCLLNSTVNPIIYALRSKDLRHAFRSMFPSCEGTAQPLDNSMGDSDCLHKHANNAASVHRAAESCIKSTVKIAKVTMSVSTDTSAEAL
Assay [2] concerns the target T1, Cannabinoid receptor 1. Briefly: Agonist activity at human recombinant CB1 receptor expressed in CHO cells by FLIPR assay.

On to `CC(C)(C)Cc1nc2c(n1CC1CC1)CCN(S(=O)(=O)c1cccnc1)C2`, for which, on Cannabinoid receptor 2, the EC50 is 0.0245 µM. The Activity at Cannabinoid receptor 1 [1] amounted to 4%. Regarding `CC(C)(C)c1nc2c(n1CC1CC1)CCN(S(=O)(=O)c1ccccc1)C2`, on Cannabinoid receptor 2, the EC50 is 0.0079 µM. Moreover, on Cannabinoid receptor 1 [1], the Activity amounted to 10%.

With `CCCN(C)C(=O)N1CCc2c(nc(C(C)(C)C)n2CC2CC2)C1`, the EC50 at Cannabinoid receptor 2 amounted to 0.38 µM. In the case of `Cc1noc(C)c1S(=O)(=O)N1CCc2c(nc(CC(C)(C)C)n2CC2CC2)C1`, the EC50 at Cannabinoid receptor 2 worked out at 0.007 µM. At Cannabinoid receptor 1 [1], the Activity was 24%. Turning to `Cc1nocc1S(=O)(=O)N1CCc2c(nc(CC(C)(C)C)n2CC2CC2)C1`, the EC50 on Cannabinoid receptor 2 is 0.0185 µM. For the same compound, at Cannabinoid receptor 1 [1], the Activity stood at 9%. The matching figures for `CC(C)(C)Cc1nc2c(n1CC1CC1)CCN(S(=O)(=O)c1ccccc1)C2`: 0.0091 µM and 9%. The matching figures for `CC(C)(C)c1nc2c(n1CC1CC1)CCN(S(=O)(=O)c1cccnc1)C2`: 0.0142 µM and 11%.

For the compound `CC(C)(C)c1nc2c(n1CC1CC1)CCN(S(C)(=O)=O)C2`, the EC50 on Cannabinoid receptor 2 amounted to 0.403 µM. The Activity at Cannabinoid receptor 1 [1] stood at 10%.

On to `CN(Cc1ccccc1)C(=O)N1CCc2c(nc(CC(C)(C)C)n2CC2CC2)C1`, for which, at Cannabinoid receptor 2, the EC50 was determined as 0.523 µM.

With `CC(C)(C)Cc1nc2c(n1CC1CC1)CCN(S(C)(=O)=O)C2`, the EC50 on Cannabinoid receptor 2 worked out at 0.439 µM. Further, the Activity on Cannabinoid receptor 1 [1] stood at 9%. For `CCCCCN1CCc2c(nc(CC(C)(C)C)n2CC2CC2)C1`, at Cannabinoid receptor 2, the EC50 worked out at 3 µM.

On to `CC(C)(C)Cc1nc2c(n1CC1CC1)CCN(S(=O)(=O)Cc1ccccc1)C2`, for which the concentration for a half-maximal effect (EC50) on Cannabinoid receptor 2 is 0.0134 µM. Further, on Cannabinoid receptor 1 [1], the Activity was 15%. The matching figures for `CC(C)(C)c1nc2c(n1CC1CC1)CCN(S(=O)(=O)Cc1ccccc1)C2`: 0.0218 µM and 13%. Turning to `Cc1nocc1S(=O)(=O)N1CCc2c(nc(C(C)(C)C)n2CC2CC2)C1`, the EC50 at Cannabinoid receptor 2 turned out to be 0.0554 µM; on Cannabinoid receptor 1 [2] it was 18 µM. For the same compound, the Activity on Cannabinoid receptor 1 [1] was found to be 38%.

As for `CN(Cc1ccccc1)C(=O)N1CCc2c(nc(C(C)(C)C)n2CC2CC2)C1`, at Cannabinoid receptor 2, the EC50 turned out to be 0.637 µM. For `CCCCCCC(C)(C)c1ccc([C@@H]2C[C@H](O)CC[C@H]2CCCO)c(O)c1`, on Cannabinoid receptor 1 [1], the Activity stood at 100%.

Take `CCCCCN1CCc2c(nc(C(C)(C)C)n2CC2CC2)C1`: the EC50 at Cannabinoid receptor 2 was determined as 0.878 µM. With `COCCS(=O)(=O)N1CCc2c(nc(C(C)(C)C)n2CC2CC2)C1`, on Cannabinoid receptor 2, the half-maximal effective concentration (EC50) came to 0.0267 µM. In addition, the Activity on Cannabinoid receptor 1 [1] is 25%. Take `CCCOC(=O)N1CCc2c(nc(CC(C)(C)C)n2CC2CC2)C1`: the EC50 on Cannabinoid receptor 2 turned out to be 0.56 µM.

Consider `COCCS(=O)(=O)N1CCc2c(nc(CC(C)(C)C)n2CC2CC2)C1`, for which the results for the EC50 at Cannabinoid receptor 2 and on Cannabinoid receptor 1 [2] were 0.0215 µM and 14 µM, respectively. For the same compound, at Cannabinoid receptor 1 [1], the Activity turned out to be 37%.

Consider `COc1ncc(Br)cc1CN1CCc2c(nc(C(C)(C)C)n2CC2CC2)C1`, for which, on Cannabinoid receptor 2, the EC50 is 0.295 µM. Same read-out and setting: with `CC(C)(C)C(=O)N1CCc2c(nc(C(C)(C)C)n2CC2CC2)C1` the figure was 0.32 µM. `CCCCC(=O)N1CCc2c(nc(CC(C)(C)C)n2CC2CC2)C1`: the EC50 at Cannabinoid receptor 2 is 1.02 µM. With `Cc1noc(C)c1S(=O)(=O)N1CCc2c(nc(C(C)(C)C)n2CC2CC2)C1`, the EC50 on Cannabinoid receptor 2 stood at 0.0051 µM; at Cannabinoid receptor 1 [2], 7.5 µM. Moreover, the Activity at Cannabinoid receptor 1 [1] was found to be 66%.
